Consider ten compounds from US9751869B2, “LXR modulators” (BRISTOL-MYERS SQUIBB COMPANY, priority 2013, dated 2017).

This assay deals with T1, LXRβ (Homo sapiens, UniProt P55055).
T1 construct: Co-transfection expression plasmids, comprising full-length LXRα (pCMX-h LXRα or LXRβ (pCMX-hLXRβ)); expressed in transfected cells; host or cells: CV-1 African green monkey kidney cells, transient transfection with pCMX-hLXRβ
T1 sequence (P55055 1-460): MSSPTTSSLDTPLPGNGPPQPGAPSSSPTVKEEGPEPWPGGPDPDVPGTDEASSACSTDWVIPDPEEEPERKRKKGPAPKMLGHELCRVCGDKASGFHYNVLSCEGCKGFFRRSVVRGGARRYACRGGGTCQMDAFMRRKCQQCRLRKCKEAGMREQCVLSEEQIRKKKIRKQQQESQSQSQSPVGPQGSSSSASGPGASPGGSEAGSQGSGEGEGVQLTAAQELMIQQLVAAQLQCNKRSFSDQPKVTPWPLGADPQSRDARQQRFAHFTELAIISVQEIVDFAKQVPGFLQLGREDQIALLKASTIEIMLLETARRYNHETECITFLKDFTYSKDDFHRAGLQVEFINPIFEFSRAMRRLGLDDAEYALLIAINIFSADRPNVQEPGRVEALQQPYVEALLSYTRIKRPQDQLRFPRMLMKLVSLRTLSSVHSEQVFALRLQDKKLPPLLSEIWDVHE
T1 sequence (P19793 1-462 partner): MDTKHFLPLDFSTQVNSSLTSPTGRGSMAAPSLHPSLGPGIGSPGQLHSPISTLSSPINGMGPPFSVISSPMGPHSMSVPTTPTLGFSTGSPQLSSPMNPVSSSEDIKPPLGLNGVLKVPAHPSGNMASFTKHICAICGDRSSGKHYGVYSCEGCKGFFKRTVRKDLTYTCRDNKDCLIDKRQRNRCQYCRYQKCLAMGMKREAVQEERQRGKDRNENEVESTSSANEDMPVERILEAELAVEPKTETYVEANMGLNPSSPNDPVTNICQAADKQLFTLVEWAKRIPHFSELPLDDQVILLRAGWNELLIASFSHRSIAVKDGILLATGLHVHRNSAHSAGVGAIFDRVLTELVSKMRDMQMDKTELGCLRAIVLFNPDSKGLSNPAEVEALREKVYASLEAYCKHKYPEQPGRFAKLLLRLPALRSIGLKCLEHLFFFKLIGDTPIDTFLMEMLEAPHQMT
The assay is described as follows: LXR/LXRE co-transfection assay (luciferase reporter) in CV-1 cells, LXRβ. The settings on record: for EC50: CV-1 cells transfected with pCMX-hLXRβ and LXREx1-Tk-Luciferase, 20 hours incubation, read-out: LXRbeta agonism EC50; for Emax: CV-1 cells, relative to maximum response of high control N-(3-((4-fluorophenyl)-(naphthalene-2-sulfonyl)amino)propyl)-2,2-dimethylpropionamide, read-out: LXRbeta % EFFICACY
It counts as cell-based. An excerpt: To measure the ability of compounds to activate or inhibit the transcriptional activity of LXR in a cell based assay, the co-transfection assay was used. It has been shown that LXR functions as a heterodimer with RXR. For the co-transfection assay, expression plasmids for LXRα and LXRβ are introduced separately via transient transfection into mammalian cells along with a luciferase reporter plasmid that contains one copy of a DNA sequence that is bound by LXR-RXR heterodimers (LXRE; Willy, P. et. al. 1995). LXRs heterodimerize with the endogenous RXR. Treatment of transfected cells with an LXR agonist increases the transcriptional activity of LXR, which is measured by an increase in luciferase activity.
Co-transfection expression plasmids, comprising full-length LXRα (pCMX-h LXRα or LXRβ (pCMX-hLXRβ), reporter plasmid (LXREx1-Tk-Luciferase), and control (pCMX-Galactosidase expression vector) (Willey et al. Genes & Development 9 1033-1045 (1995)).
CV-1 cells were prepared 24 hours prior to the experiment by plating them into T-175 flasks or 500 cm^2 dishes in order to achieve 70-80% confluency on the day of the transfection. The number of cells to be transfected was determined by the number of plates to be screened. Each well of a 384 well plate requires 1.5×10^4 cells. DNA Transfection Reagent was prepared by mixing the required plasmid DNAs with a cationic lipid transfection reagent Transit 2020 (Mirus Bio) for CV1 by following the instructions provided with the reagents. Optimal DNA amounts were determined empirically per cell line and size of vessel to be transfected. For each T175 cm^2 flask a total of 44.4 ug for CV1 of DNA, 133 ul Transit2020 and 4.5 ml DMEM for CV1 was mixed and added. Cells were then incubated at least 5 hours at 37° C. to prepare screening cells.
Assay plates were prepared by dispensing 5 μL of compound per well of a 384 well plate to achieve final compound concentration of 10 μM and no more than 0.5% DMSO. Media was removed from the screening cells, the cells trypsinized, harvested cells by centrifugation, counted, and plated at a density of approximately 1.5×10^4 cells in the 384 well assay plate prepared above in a volume of about 95 uL. Assay plates containing both compounds and screening cells (100 μL in total volume) were incubated for 20 hours at 37° C.
After incubation with compounds, media was removed from the cells and luciferase assay reagent (30 μL/well) added. After ˜2 minutes at ambient temperature, the assay plates were read on a luminometer (PE Biosystems Northstar reader with on-board injectors, or Envision (Perkin Elmer) or equivalent).
The LXR/LXRE co-transfection assay can be used to establish the EC50/IC50 values for potency and percent activity or inhibition for efficacy. Efficacy defines the activity of a compound relative to a high control ((N-(3-((4-fluorophenyl)-(naphthalene-2-sulfonyl)amino)propyl)-2,2-dimethylpropionamide)) or a low control (DMSO/vehicle). The dose response curves are generated from a 10 point curve with concentrations differing by ½ LOG units. Each point represents the average of 4 wells of data from a 384 well plate.
The data from this assay is fitted to the following equation, from which the EC50 value may be solved: Y=Bottom+(Top−Bottom)/(1+10^((log EC50-X)*HillSlope)).
The EC50/IC50 is therefore defined as the concentration at which an agonist or antagonist elicits a response that is halfway between the Top (maximum) and Bottom (baseline) values. The EC50/IC50 values represented are the averages of at least 2 and normally 3 independent experiments. The determination of the relative efficacy or % control for an agonist is by comparison to the maximum response achieved by ((N-(3-((4-fluorophenyl)-(naphthalene-2-sulfonyl)-amino)propyl)-2,2-dimethylpropionamide) that is measured individually in each dose response experiment.
Table 1 lists LXRβ EC50 values and % efficacy measurements in the cotransfection assay for examples of this invention.
A general note: A reporter such as luciferase makes a cellular process visible.

The term EC50 denotes the concentration giving half of the maximal effect.

For `Cn1nc(C(F)(F)C(N)=O)cc1-c1ccc(-c2cc(F)c(CO)c(S(C)(=O)=O)c2)cc1-n1nncc1-c1ccc(OC(F)(F)F)cc1` [Example 8, 2,2-difluoro-2-(5-(3′-fluoro-4′-(hydroxymethyl)-5′-(methylsulfonyl)-3-(5-(4-(trifluoromethoxy)phenyl)-1H-1,2,3-triazol-1-yl)biphenyl-4-yl)-1-methyl-1H-pyrazol-3-yl)acetamide], the EC50 was 2320 nM and the Emax came out at 79%.
`CCC(F)(F)c1cc(-c2ccc(-c3cccc(S(C)(=O)=O)c3)cc2-n2nncc2-c2ccc(OC(F)(F)F)cc2)n(C)n1` [Example 9, 1-(4-(3-(1,1-difluoropropyl)-1-methyl-1H-pyrazol-5-yl)-3′-(methylsulfonyl)biphenyl-3-yl)-5-(4-(trifluoromethoxy)phenyl)-1H-1,2,3-triazole]: the EC50 was 70 nM and the Emax was 82%.
In the same order, the values of `Cc1c(C(C)(F)F)nn(C)c1-c1ccc(-c2cccc(S(C)(=O)=O)c2)cc1-n1nncc1-c1ccc(OC(F)(F)F)cc1` [Example 10, 1-(4-(3-(1,1-difluoroethyl)-1,4-dimethyl-1H-pyrazol-5-yl)-3′-(methylsulfonyl)biphenyl-3-yl)-5-(4-(trifluoromethoxy)phenyl)-1H-1,2,3-triazole] are 31 nM and 104%.
Regarding `Cc1c(C(C)(F)F)nn(C)c1-c1ccc(-c2ccc(CO)c(S(C)(=O)=O)c2)cc1-n1nncc1-c1ccc(OC(F)(F)F)cc1` [Example 11, (4′-(3-(1,1-difluoroethyl)-1,4-dimethyl-1H-pyrazol-5-yl)-3-(methylsulfonyl)-3′-(5-(4-(trifluoromethoxy)phenyl)-1H-1,2,3-triazol-1-yl)biphenyl-4-yl)methanol], the EC50 was 15 nM and the Emax stood at 104%.
With `Cn1nc(C(F)(F)F)cc1-c1ccc(-c2cccc(C(C)(C)C(N)=O)c2)cc1-n1nncc1-c1ccc(OC(F)(F)F)cc1` [Example 12], the EC50 came out at 74 nM and the Emax amounted to 81%.
As for `Cn1nc(C(F)(F)F)cc1-c1ccc(-c2cc(Cl)c(CO)c(S(C)(=O)=O)c2)cc1-n1nncc1-c1ccc(OC(F)(F)F)cc1` [Example 13], the EC50 was determined as 45 nM and the Emax amounted to 83%.
In the same order, the values of `Cn1nc(C(F)(F)F)cc1-c1ccc(-c2cccc(S(C)(=O)=O)c2)cc1-n1nncc1-c1ccc(OC(F)(F)F)cc1` [Example 14, 1-{3′-(methylsulfonyl)-4-[1-methyl-3-(trifluoromethyl)-1H-pyrazol-5-yl]biphenyl-3-yl}-5-{4-[(trifluoromethyl)oxy]phenyl}-1H-1,2,3-triazole] are 32 nM and 99%.
In the same order, the values of `Cn1nc(C(F)(F)F)cc1-c1ccc(-c2cc(F)c(CO)c(S(C)(=O)=O)c2)cc1-n1nncc1-c1ccc(OC(F)(F)F)cc1` [Example 15, (3-fluoro-4′-(1-methyl-3-(trifluoromethyl)-1H-pyrazol-5-yl)-5-(methylsulfonyl)-3′-(5-(4-(trifluoromethoxy)phenyl)-1H-1,2,3-triazol-1-yl)biphenyl-4-yl)methanol] are 11 nM and 95%.
In the same order, the values of `COCC(F)(F)c1cc(-c2ccc(-c3cccc(S(C)(=O)=O)c3)cc2-n2nncc2-c2ccc(OC(F)(F)F)cc2)n(C)n1` [Example 16, 1-[4-{3-[1,1-difluoro-2-(methyloxy)ethyl]-1-methyl-1H-pyrazol-5-yl}-3′-(methylsulfonyl)biphenyl-3-yl]-5-{4-[(trifluoromethyl)oxy]phenyl}-1H-1,2,3-triazole] are 163 nM and 89%.
In the case of `COCC(F)(F)c1cc(-c2ccc(-c3cc(F)c(CO)c(S(C)(=O)=O)c3)cc2-n2nncc2-c2ccc(OC(F)(F)F)cc2)n(C)n1` [Example 17, [4′-{3-[1,1-difluoro-2-(methyloxy)ethyl]-1-methyl-1H-pyrazol-5-yl}-3-fluoro-5-(methylsulfonyl)-3′-(5-{4-[(trifluoromethyl)oxy]phenyl}-1H-1,2,3-triazol-1-yl)biphenyl-4-yl]methanol], the EC50 amounted to 61 nM and the Emax came out at 96%.
